Reference: patent US20160215268A1, “Suspension Culturing of Pluripotent Stem Cells” (Janssen Biotech, Inc., priority 2014, published 2016)

Tested on: human embryonic stem cell line H1
Experiment: OpenArray qRT-PCR mRNA expression in differentiating H1 cells
Format: cell-based
Settings: Example 5, condition A, beginning of Stage 6, 100 nM
Method: In addition to monitoring the metabolic profile of the spent media through daily sampling, representative samples of cells were obtained throughout the differentiation process and tested for mRNA expression of a panel of genes via Applied Biosystems® OpenArray® (Life Technologies) and calculated as fold difference in expression compared to pluripotent ISM cells after 24 hours in culture from the beginning of the experiment. FIGS. 2A through M depict data for expression of the following genes in cells differentiated through the first day of Stage 5: PDX1 (FIG.2A); NKX6.1 (FIG. 2B); PAX4 (FIG. 2C); PAX6 (FIG. 2D); NEUROG3(NGN3) (FIG. 2E); ABCC8 (FIG. 2F); Chromogranin-A (“CHGA”) (FIG. 2G); G6PC2 (FIG. 2H); IAPP (FIG. 2I); insulin (“INS”) (FIG. 2J); glucagon (“GCG”) (FIG. 2K); PTF1a (FIG. 2L); and NEUROD1 (FIG. 2M).
In addition to determining cell protein expression by flow cytometry, samples throughout Stages 3 and 4 of the differentiation process were tested for mRNA expression of a gene panel using OpenArray® qRT-PCR. […]
Throughout the differentiation process cell samples were collected from the suspension cultures for analysis. Samples were analyzed for mRNA expression (OpenArray® qRT-PCR) and protein expression (flow cytometry and florescent immune-histochemistry).

Structure (SMILES): C[C@H](NC(=O)Cc1cc(F)cc(F)c1)C(=O)N[C@@H]1C(=O)N(C)c2ccccc2-c2ccccc21 [gamma secretase inhibitor XX]
- NGN3 expression: second induction of NGN3
